This is an account of results in PMC4977564, “Inhibition of Mycobacterium tuberculosis dihydrodipicolinate synthase by alpha-ketopimelic acid and its other structural analogues” (Scientific Reports, 2016).

T1 sequence (P9WP25 whole entry, looked up): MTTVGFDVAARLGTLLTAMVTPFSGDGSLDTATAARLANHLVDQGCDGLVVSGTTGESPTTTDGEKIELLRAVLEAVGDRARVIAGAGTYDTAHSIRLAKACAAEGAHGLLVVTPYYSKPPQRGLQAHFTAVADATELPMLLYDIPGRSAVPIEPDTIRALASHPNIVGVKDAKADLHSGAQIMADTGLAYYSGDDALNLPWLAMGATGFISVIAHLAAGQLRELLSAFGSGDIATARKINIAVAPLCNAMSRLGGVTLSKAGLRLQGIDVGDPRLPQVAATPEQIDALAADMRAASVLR

The first assay deals with Mtb-rDapA (Mycobacterium tuberculosis, UniProt P9WP25). Briefly: Fluorescence-based thermal shift assay. As to conditions: ligand 0.2 mM to 1 mM; Mtb-rDapA Tm 84.8 °C. It counts as binding. From the text: The fluorescence based thermal shift assay for screening of identified ligands, which is based on the principle that ligand binding alters thermal stability of protein. This method allows us to monitor the protein denaturation upon heating using fluorescence based dye (Sypro orange, Sigma, USA), which binds to hydrophobic part of proteins during protein denaturation and emits fluorescence at 580 nm[43]. We can monitor the changes in fluorescence and generate a thermal melting curve using real time PCR. The mid-point of the melting curve designated as the melting temperature Tm corresponding to 50% of protein being denatured.
Chain of Mtb-rDapA (P9WP25 whole entry, looked up): as above
The thermal shift assay was carried out in the LightCycler^R LC480 qPCR machine using 384 well PCR plates (Roche, USA). An assay mixture of 20 μl contained 20 μM Mtb-rDapA, 15 X Sypro Orange (Sigma), 50 mM sodium phosphate buffer pH 7.4 and ligand in the range 0.2 mM to 1 mM. The ligands and Mtb-rDapA were diluted in sodium phosphate buffer. The PCR plates were sealed with optical seal, mixed well and centrifuged after the assay mixture was added. […] The fluorescence intensity was measured by excitation at 465 nm and emission at 580 nm. Curve fitting, melting temperature calculation and report generation on the raw Fluorescence based thermal shift assay (FTS) data were performed using pre-installed analysis software provided with the instrument (Roche, USA)[44].
`CC(=O)C(=O)O` [pyruvate]: the “Tm increase of Mtb-rDapA upon binding” value came out at 2 °C.

A further assay has as its system Escherichia coli DapA.
Test: not given
To be noted: cited from earlier work.
As to `O=C(O)c1cccc(C(=O)O)[n+]1[O-]` [N-oxide of dipicolinic acid], the IC50 was 200 µM.

Turning to `COC(=N)c1cccc(C(=N)OC)n1` [di-imidate of dimethyl pyridine-2,6-dicarboxylate], the IC50 was 200 µM.

The assay is the same for the next values; noted with them: competitive inhibitors, structural analogues of pyruvate; cited from earlier work.
Regarding `O=C(O)C(=O)CF` [3-fluoropyruvate], the inhibition constant (Ki) was 220 µM.

For the compound `O=CC(=O)O` [glyoxylate], the Ki was 16 µM.

With `CCC(=O)C(=O)O` [α-ketobutyrate], the Ki was 830 µM.

Turning to `CCCC(=O)C(=O)O` [α-ketovalerate], the Ki is 700 µM.

Another assay concerns the target T1, recombinant Mtb-DapA (Mtb-rDapA) (Mycobacterium tuberculosis, UniProt P9WP25).
Test: not given
As to conditions: pyruvate 500 μM, ASA 400 μM; up to millimolar concentrations.
For `O=C(O)c1ccccc1` [compound 5, Benzoic acid], the “Inhibition of Mtb-rDapA (in words)” value is given as “None of these showed inhibition”.

For the compound `CCCC(=O)CC(=O)OC` [compound 7, Methyl 3-oxohexanoate], the “Inhibition of Mtb-rDapA (in words)” value is reported as “did not show any inhibition”.

In the case of `Nc1ccc(C(=O)O)c(O)c1` [compound 8, 4-amino-2-hydroxy-benzoic acid], the “Inhibition of Mtb-rDapA (in words)” value was “None of these showed inhibition”.

`O=C(O)COc1ccccc1` [compound 9, 2-phenoxyacetic acid]: the “Inhibition of Mtb-rDapA (in words)” value is “None of these showed inhibition”.

As for `CCCCc1ccc(C(=O)O)nc1` [compound 10, 5-butylpyridine-2-carboxylic acid], the “Inhibition of Mtb-rDapA (in words)” value is reported as “None of these showed inhibition”.

Take `Nc1ccc(C(=O)O)cc1` [p-amino benzoic acid]: the “Inhibition of Mtb-rDapA (in words)” value was “None of these showed inhibition”.

The assay is the same for the next values; noted with them: read-out: Michaelis constant, Km; substrate of Mtb-rDapA.
Take `N[C@@H](CC=O)C(=O)O` [ASA, L-aspartate-beta-semialdehyde]: the Km is 388 µM.

The next assay concerns the target T1, recombinant Mtb-DapA (Mtb-rDapA). Briefly: biochemical. As to conditions: IC50, pyruvate 500 μM, ASA 400 μM.
Take `O=C(O)CCCCC(O)C(=O)O` (centres unmarked) [compound 11, hydroxyheptanedioic acid]: the IC50 is 31 µM.

The same assay, now with this note: read-out: Maximal Inhibition (%).
As for `O=C(O)CCCC(=O)C(=O)O` [compound 2, 2-oxohexanedioic acid], the Emax amounted to 40%.

Regarding `O=C(O)CCC(=O)C(=O)O` [compound 3, 2-oxopentanedioic acid], the Emax stood at 15%.

In the case of `O=C(O)CCCCCC(=O)O` [compound 4, heptanedioic acid], the Emax worked out at 10%.

As to `O=C(O)c1ccccc1` [compound 5, Benzoic acid], the Emax came out at 2%.

On to `Nc1ccc(C(=O)O)cc1` [compound 6, p-amino benzoic acid], for which the Emax worked out at 8%.

For `CCCC(=O)CC(=O)OC` [compound 7, Methyl 3-oxohexanoate], the Emax worked out at 5%.

`Nc1ccc(C(=O)O)c(O)c1` [compound 8, 4-amino-2-hydroxy-benzoic acid]: the Emax is 4%.

`O=C(O)COc1ccccc1` [compound 9, 2-phenoxyacetic acid]: the Emax was found to be 4%.

With `CCCCc1ccc(C(=O)O)nc1` [compound 10, 5-butylpyridine-2-carboxylic acid], the Emax was found to be 5%.

Consider `O=C(O)CCCCC(O)C(=O)O` (centres unmarked) [compound 11, hydroxyheptanedioic acid], for which the Emax was 74%.

Consider `COC(=O)CCCC(=O)NC(N)=O` [compound 12, Methyl-oxo-ureidopentanoate], for which the Emax is 65%.

As for `NC(=O)SCCCCC(=O)O` [compound 13, 5-(Carbamoylthio)pentanoic acid], the Emax was 65%.

On to `CN(CCCC(N)=O)C(=O)C(=O)O` [compound 14, amino-oxobutyl-methyl-amino-oxoacetic acid], for which the Emax was found to be 44%.

As for `CCOC(=O)C(=O)N(C)CCCC(=O)OC` [compound 15, methyl-ethoxy-methyl-oxoacetamido-butanoate], the Emax is 42%.

Regarding `NC(=O)NC(=O)CCCC(=O)O` [compound 16, oxo-ureidopentanoic acid], the Emax is 40%.

As to `CN(CCCC(N)=O)C(=O)C(N)=O` [compound 17, amino-oxobutyl-methyloxalamide], the Emax was found to be 40%.

As for `CN(CCCC(=O)O)C(=O)C(=O)O` [compound 18, carboxy-methylformamido-butanoic acid], the Emax came out at 39%.

Regarding `COC(=O)CCCN1C(=O)NC(=O)C1=O` [compound 19, methyl-trioxoimidazolidin -butanoate], the Emax was 38%.

`CCOC(=O)C(=O)CCCCC(=O)O` [compound 20, Ethoxy-dioxoheptanoic acid]: the Emax amounted to 35%.

As for `COC(=O)CCCCC(=O)c1nn[nH]n1` [compound 21, methyl-oxo-tetrazol-hexanoate], the Emax turned out to be 35%.

Take `COC(=O)c1ccc(C(=O)C(N)=O)cc1` [compound 22, Methyl-amino-oxoacetyl benzoate]: the Emax worked out at 35%.

Turning to `O=C(O)c1ccc(C(O)C(=O)O)cc1` (centres unmarked) [compound 23, Carboxy-hydroxy-methyl benzoic acid], the Emax was determined as 35%.

For the compound `COC(=O)c1ccc(C(O)C(=O)O)cc1` (centres unmarked) [compound 24, Hydroxy-methoxycarbonyl pheny acetic acid], the Emax was 35%.

Regarding `CCOC(=O)C(=O)N(C)CCCC(N)=O` [compound 25, Ethyl-amino-oxobutyl-methyl-amino-oxoacetate], the Emax was 35%.

Take `NC(=O)C(=O)c1ccc(C(=O)O)cc1` [compound 26, amino-oxoacetyl-benzoic acid]: the Emax is 34%.

With `CCOC(=O)CCCCSC(N)=O` [compound 27, ethyl-carbamoylthio-pentanoate], the Emax was 34%.

`CCOC(=O)CCC[S+]([O-])CC(N)=O` (centres unmarked) [compound 28, Ethyl 4-((2-amino-2-oxoethyl)sulfinyl)butanoate]: the Emax amounted to 31%.

`COC(=O)c1ccc(C(=O)C(=O)O)cc1` [compound 29, methoxycarbonyl-phenyl-oxoacetic acid]: the Emax was determined as 29%.

In the case of `NC(=O)CS(=O)(=O)CCCC(=O)O` [compound 30, 4-((2-amino-2-oxoethyl)sulfonyl) butanoic acid], the Emax was 29%.

In the case of `COC(=O)CCCCC(O)C(N)=O` (centres unmarked) [compound 31, Methyl 7-amino-6-hydroxy-7-oxoheptanoate], the Emax amounted to 28%.

Take `COC(=O)CCCCC(=O)C(N)=O` [compound 32, methyl 7-amino-6,7-dioxoheptanoate]: the Emax amounted to 24%.

As to `O=C(O)C(=O)c1ccc(C(=O)O)cc1` [compound 33, carboxycarbonyl-benzoic acid], the Emax is 22%.

For `CCOC(=O)CCCSCC(N)=O` [compound 34, Ethyl 4-((2-amino-2-oxoethyl)thio)butanoate], the Emax was found to be 21%.

For `NC(=O)CCCCC(O)C(N)=O` (centres unmarked) [compound 35, 2-Hydroxyheptanediamide], the Emax turned out to be 21%.

For `O=C(O)CCCN1C(=O)NC(=O)C1=O` [compound 36, 4-(2,4,5-Trioxoimidazolidin-1-yl) butanoic acid], the Emax was 21%.

With `NC(=O)c1ccc(C(=O)C(=O)O)cc1` [compound 37, 2-(4-Carbamoylphenyl)-2-oxoacetic acid], the Emax is 15%.

Turning to `NC(=O)CSCCCC(=O)O` [compound 38, 4-((2-Amino-2-oxoethyl)thio) butanoic acid], the Emax was found to be 15%.

For the compound `CCOC(=O)CCCS(=O)(=O)CC(N)=O` [compound 39, Ethyl 4-((2-amino-2-oxoethyl)sulfonyl)butanoate], the Emax worked out at 12%.

As a reminder, the IC50 is the concentration that gives 50% inhibition. For orientation: Ki means a measure of affinity in units of concentration, obtained from inhibition or displacement. The Km is the substrate concentration at which the rate is half of its maximum.
